Data on 23 molecules can be found in patent US20220079924A1, “GLUCOCORTICOID RECEPTOR MODULATORS” (ORIC Pharmaceuticals, Inc., priority 2018, published 2022).

SMILES strings stand for the structures.

The test deals with T1, GR (Homo sapiens, UniProt P04150).
T1 construct: expressed in transfected cells; host or cells: CHO-K1 (CHO-K1-GR-MMTV-Luc reporter cells)
T1 sequence (P04150 1-777): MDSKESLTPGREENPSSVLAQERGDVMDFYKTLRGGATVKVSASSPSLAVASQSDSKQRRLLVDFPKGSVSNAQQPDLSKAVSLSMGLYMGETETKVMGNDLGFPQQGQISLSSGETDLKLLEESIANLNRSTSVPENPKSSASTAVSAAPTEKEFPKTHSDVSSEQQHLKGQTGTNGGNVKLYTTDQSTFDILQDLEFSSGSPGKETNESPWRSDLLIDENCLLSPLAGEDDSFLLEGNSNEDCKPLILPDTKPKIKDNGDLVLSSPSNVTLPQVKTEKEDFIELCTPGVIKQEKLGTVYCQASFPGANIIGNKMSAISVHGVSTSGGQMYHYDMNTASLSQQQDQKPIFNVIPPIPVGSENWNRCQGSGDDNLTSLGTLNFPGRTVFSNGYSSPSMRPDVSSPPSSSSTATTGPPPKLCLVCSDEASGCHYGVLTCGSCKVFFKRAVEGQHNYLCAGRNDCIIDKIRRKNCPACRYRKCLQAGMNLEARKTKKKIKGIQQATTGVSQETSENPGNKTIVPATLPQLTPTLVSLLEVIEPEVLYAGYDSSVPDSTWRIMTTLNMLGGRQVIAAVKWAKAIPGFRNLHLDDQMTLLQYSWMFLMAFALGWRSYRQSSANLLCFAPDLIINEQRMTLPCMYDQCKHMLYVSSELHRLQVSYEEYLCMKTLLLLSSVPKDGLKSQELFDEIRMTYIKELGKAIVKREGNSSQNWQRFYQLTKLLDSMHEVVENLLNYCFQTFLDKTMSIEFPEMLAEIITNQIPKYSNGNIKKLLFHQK
As to the kind of experiment: In Vitro GR Luciferase Reporter Assay (antagonist assay). The class given is cell-based. The note with it: CHO-K1-GR-MMTV-Luc reporter cells, 10 nM Dexamethasone, 18-24 hours. The procedure: Example A: In Vitro GR Luciferase Reporter Assay
Cell Line: CHO-K1-GR-MMTV-Luc reporter cells
Culture Media: DMEM (with phenol red)+10% FBS
Assay Media: DMEM (without phenol red)+10% CSS
Culture CHO-K1-GR-MMTV-Luc reporter cells in T175 flasks in Culture Media at conditions less than 90% confluence.
Using Bravo (Agilent) liquid handler:
200× DMSO 1:3 serial dilutions of control and test compounds in 96-well non-sterile V bottom plate in DMSO, 12 points for each compound were prepared.
Prepared 5× compound serial dilutions: Add 97.5 μL/well of Assay Media into 96-well non-sterile V bottom plate then added 2.5 ul of 200× concentration of compounds and mix well.
Seeded cells for Antagonist Assay: 5200 CHO-K1-GR-MMTV-Luc reporter cells were seeded in Greiner #781080 flat clear bottom 384-well white TC plate in 20 ul of Assay Media containing 12.5 nM Dexamethasone (final concentration=10 nM).
Added compounds: 5 μl of 5× compounds were added to appropriate wells and followed with a quick spin (1000 rpm, 10 sec) to bring media and cells to the bottom of plate. The plates were covered with SealMate film to avoid evaporation and placed in 37° C. incubator for approximately 18-24 hours.
Read plates: Equilibrate appropriate amount of Promega OneGlo luciferase reagent to room temperature. Remove the plates from incubator and add 25 uL of OneGlo reagent/well by Bravo and read the plates on Tecan Spark plate reader within 15 minutes.
The ability of the compounds disclosed herein to inhibit GR activity was quantified and the respective IC50 value was determined. Table 1 provides the cellular IC50 values of compounds disclosed herein.
On the technique in general: A reporter such as luciferase makes a cellular process visible.
As to `C[C@H]([C@H]1CCC2=Cc3c(cnn3-c3ccc(F)cc3)C[C@]2(C(=O)c2ncc(C(F)(F)F)s2)C1)S(=O)(=O)c1cnn(C)c1` (single isomer, unassigned) [Example 9, ((4aR,6S)-1-(4-Fluorophenyl)-6-((R)-1-((1-methyl-1H-pyrazol-4-yl)sulfonyl)ethyl)-1,4,5,6,7,8-hexahydro-4aH-benzo[f]indazol-4a-yl)(5-(trifluoromethyl)thiazol-2-yl)methanone or ((4aR,6S)-1-(4-fluorophenyl)-6-((S)-1-((1-methyl-1H-pyrazol-4-yl)sulfonyl)ethyl)-1,4,5,6,7,8-hexahydro-4aH-benzo[f]indazol-4a-yl)(5-(trifluoromethyl)thiazol-2-yl)methanone], the IC50 (commonly the concentration that inhibits the measured activity by half) is no more than 100 nM.
Then `C[C@@H]([C@H]1CCC2=Cc3c(cnn3-c3ccc(F)cc3)C[C@]2(C(=O)c2ncc(C(F)(F)F)s2)C1)S(=O)(=O)c1cnn(C)c1` (single isomer, unassigned) [Example 10, ((4aR,6S)-1-(4-Fluorophenyl)-6-((R)-1-((1-methyl-1H-pyrazol-4-yl)sulfonyl)ethyl)-1,4,5,6,7,8-hexahydro-4aH-benzo[f]indazol-4a-yl)(5-(trifluoromethyl)thiazol-2-yl)methanone or ((4aR,6S)-1-(4-fluorophenyl)-6-((S)-1-((1-methyl-1H-pyrazol-4-yl)sulfonyl)ethyl)-1,4,5,6,7,8-hexahydro-4aH-benzo[f]indazol-4a-yl)(5-(trifluoromethyl)thiazol-2-yl)methanone], with no more than 100 nM; and `Cn1cnc(S(=O)(=O)N(C2CC2)[C@H]2CCC3=Cc4c(cnn4-c4ccc(F)cc4)C[C@]3(C(=O)c3ncc(C(C)(C)C)s3)C2)c1` [Example 1, N-((4aS,6S)-4a-(5-(tert-Butyl)thiazole-2-carbonyl)-1-(4-fluorophenyl)-4,4a,5,6,7,8-hexahydro-1H-benzo[f]indazol-6-yl)-N-cyclopropyl-1-methyl-1H-imidazole-4-sulfonamide], with no more than 100 nM.
In the case of `Cn1cnc(S(=O)(=O)N(C2CC2)[C@H]2CCC3=Cc4c(cnn4-c4ccc(F)cc4)C[C@]3(C(=O)c3cc(F)ccn3)C2)c1` [Example 2, N-Cyclopropyl-N-((4aS,6S)-1-(4-fluorophenyl)-4a-(4-fluoropicolinoyl)-4,4a,5,6,7,8-hexahydro-1H-benzo[f]indazol-6-yl)-1-methyl-1H-imidazole-4-sulfonamide], the IC50 was no more than 100 nM.
In turn, `Cn1cc(S(=O)(=O)N(C2CC2)[C@H]2CCC3=Cc4c(cnn4-c4ccc(F)nc4)C[C@]3(C(=O)c3cc(F)ccn3)C2)cn1` [Example 3, N-Cyclopropyl-N-((4aS,6S)-4a-(4-fluoropicolinoyl)-1-(6-fluoropyridin-3-yl)-4,4a,5,6,7,8-hexahydro-1H-benzo[f]indazol-6-yl)-1-methyl-1H-pyrazole-4-sulfonamide] displayed an IC50 of no more than 100 nM.
`Cn1cnc(S(=O)(=O)N(CC(F)(F)F)[C@H]2CCC3=Cc4c(cnn4-c4ccc(F)cc4)C[C@]3(C(=O)c3cc(F)ccn3)C2)n1` [Example 4, N-((4aS,6S)-1-(4-Fluorophenyl)-4a-(4-fluoropicolinoyl)-4,4a,5,6,7,8-hexahydro-1H-benzo[f]indazol-6-yl)-1-methyl-N-(2,2,2-trifluoroethyl)-1H-1,2,4-triazole-3-sulfonamide] gave an IC50 of no more than 100 nM.
The molecule `Cn1cc(S(=O)(=O)N(CCF)[C@H]2CCC3=Cc4c(cnn4-c4ccc(F)cc4)C[C@]3(C(=O)c3cc(F)ccn3)C2)cn1` [Example 5, N-(2-Fluoroethyl)-N-((4aS,6S)-1-(4-fluorophenyl)-4a-(4-fluoropicolinoyl)-4,4a,5,6,7,8-hexahydro-1H-benzo[f]indazol-6-yl)-1-methyl-1H-pyrazole-4-sulfonamide] came in with a 50% inhibitory concentration (IC50) of no more than 100 nM.
Next, `CC(C)N([C@H]1CCC2=Cc3c(cnn3-c3ccc(F)cn3)C[C@]2(C(=O)c2cc(C(F)(F)F)ccn2)C1)S(=O)(=O)c1cnn(C)c1` [Example 6, N-((4aS,6S)-1-(5-Fluoropyridin-2-yl)-4a-(4-(trifluoromethyl)picolinoyl)-4,4a,5,6,7,8-hexahydro-1H-benzo[f]indazol-6-yl)-N-isopropyl-1-methyl-1H-pyrazole-4-sulfonamide]: no more than 100 nM.
Then `Cn1cnc(S(=O)(=O)[C@H]2CCC3=Cc4c(cnn4-c4ccc(F)cc4)C[C@]3(C(=O)c3ccc(C4CC4)cn3)C2)n1` [Example 7, (5-Cyclopropylpyridin-2-yl)((4aS,6S)-1-(4-fluorophenyl)-6-((1-methyl-1H-1,2,4-triazol-3-yl)sulfonyl)-1,4,5,6,7,8-hexahydro-4aH-benzo[f]indazol-4a-yl)methanone], with no more than 100 nM; and `Cn1ccc(S(=O)(=O)C(C)(C)[C@H]2CCC3=Cc4c(cnn4-c4ccc(F)cc4)C[C@]3(C(=O)c3cc(F)ccn3)C2)n1` [Example 8, ((4aR,6S)-1-(4-Fluorophenyl)-6-(2-((1-methyl-1H-pyrazol-3-yl)sulfonyl)propan-2-yl)-1,4,5,6,7,8-hexahydro-4aH-benzo[f]indazol-4a-yl)(4-fluoropyridin-2-yl)methanone], with no more than 100 nM.
Next, `Cn1cnc(S(=O)(=O)N(C2CC2)[C@H]2CCC3=Cc4c(cnn4-c4ccc(F)nc4)C[C@]3(C(=O)c3cc(C(F)(F)F)ccn3)C2)n1` [Example 11, N-cyclopropyl-N-((4aS,6S)-1-(6-fluoropyridin-3-yl)-4a-(4-(trifluoromethyl)picolinoyl)-4,4a,5,6,7,8-hexahydro-1H-benzo[f]indazol-6-yl)-1-methyl-1H-1,2,4-triazole-3-sulfonamide]: no more than 100 nM.
`Cn1cc(S(=O)(=O)N(CC(F)F)[C@H]2CCC3=Cc4c(cnn4-c4ccc(F)cc4)C[C@]3(C(=O)c3ncc(C(F)(F)F)s3)C2)cn1` [Example 12] came in with an IC50 of no more than 100 nM.
Next, `Cn1cc(S(=O)(=O)N(C2CC(F)(F)C2)[C@H]2CCC3=Cc4c(cnn4-c4ccc(F)cc4)C[C@]3(C(=O)c3cc(Cl)ccn3)C2)cn1` [Example 13]: no more than 100 nM.
Take `Cn1cnc(S(=O)(=O)N([C@H]2CCC3=Cc4c(cnn4-c4ccc(F)cc4)C[C@]3(C(=O)c3ncc(C(F)(F)F)s3)C2)[C@H]2C[C@@H](C#N)C2)n1` [Example 14]: the half-maximal inhibitory concentration (IC50) was no more than 100 nM.
Next, `Cn1cc(S(=O)(=O)C[C@H]2CCC3=Cc4c(cnn4-c4ccc(F)cc4)C[C@]3(C(=O)c3cc(F)ccn3)C2)cn1` [Example 15]: no more than 100 nM; `Cn1cc(S(=O)(=O)N(C2CC2)[C@H]2CCC3=Cc4c(cnn4-c4ccc(F)nc4)C[C@]3(C(=O)c3ncc(C(F)(F)F)s3)C2)cn1` [Example 16]: no more than 100 nM.
Then `Cn1ncnc1S(=O)(=O)[C@H]1CCC2=Cc3c(cnn3-c3ccc(F)cc3)C[C@]2(C(=O)c2cc(C(F)(F)F)ccn2)C1` [Example 17], with no more than 100 nM; and `Cn1cc(S(=O)(=O)N(C2CC2)[C@H]2CCC3=Cc4c(cnn4-c4ccc(F)nc4)C[C@]3(C(=O)c3cc(C(F)(F)F)ccn3)C2)cn1` [Example 18], with no more than 100 nM.
Then `O=C(c1cc(C(F)(F)F)ccn1)[C@]12Cc3cnn(-c4ccc(F)nc4)c3C=C1CC[C@H](N(C1CC1)S(=O)(=O)c1ccc(F)cc1)C2` [Example 19], with no more than 100 nM; and `CN(C)C(=O)CN([C@H]1CCC2=Cc3c(cnn3-c3ccc(F)cc3)C[C@]2(C(=O)c2cc(C(F)(F)F)ccn2)C1)S(=O)(=O)c1ccn(C)n1` [Example 21], with no more than 100 nM; and `Cn1cnc(S(=O)(=O)N(C2CC2)[C@H]2CCC3=Cc4c(cnn4-c4ccc(F)cc4)C[C@]3(C(=O)c3csc(C(F)(F)F)n3)C2)n1` [Example 22], with no more than 100 nM.
Turning to `O=C(c1cc(F)ccn1)[C@]12Cc3cnn(-c4ccc(F)cc4)c3C=C1CC[C@H](N(C1CC(F)(F)C1)S(=O)(=O)c1ccc(F)cc1)C2` [Example 23], the IC50 was no more than 100 nM.
The molecule `O=C(c1cc(Cl)ccn1)[C@]12Cc3cnn(-c4ccc(F)cc4)c3C=C1CC[C@H](N(C1CC(F)(F)C1)S(=O)(=O)c1ccc(F)cc1)C2` [Example 24] registered an IC50 of no more than 100 nM.
